How the values were obtained:
[1] = tested on: inflammatory oedema of the CFA-injected hind paw; assay: Complete Freund adjuvant (CFA) induced paw inflammation (oedema) in the rat, plethysmometer; format: in vivo, Sprague-Dawley rats; conditions: for ml (inflamed paw/normal paw), intensity of oedema: day 3 after CFA, mean ± SD
Experimental: An inflammation model extensively used and validated in the rat was used for the study.
Sprague-Dawley rats weighing 200-250 grams were used. The animals were housed in groups of 4 to a cage, at the temperature of 22° C.±2° C., with a light-dark cycle of 12/12-hour and unlimited access to food and water. The animals were used after a week's acclimatisation in the housing facility. Each test group consisted of 8 rats.
Inflammation was induced in one limb of the rat by administering a suspension of complete Freund adjuvant (CFA) containing 0.1 mg/0.1 ml of inactivated mycobacterium tuberculosis (H37Ra, ATCC 25177), in paraffin oil and mannide monooleate. The CFA was injected into the plantar surface of the left hind paw of the rat. This method induces reproducible inflammation characterised by oedema and pain.
All the medicaments were administered 3 days after the inflammation was induced with CFA. The Firocoxib was resuspended in a carrier consisting of 0.5% methocel, and administered orally in the volume of 1 ml at the doses of 2.5 and 5 mg/Kg.
The dose of 2.5 mg/Kg was combined with Tramadol at the dose of 4 mg/Kg. Tramadol dissolved in saline was administered by the intraperitoneal route (i.p., 0.2 ml/100 grams of weight) 30 minutes […] the Firocoxib. Inflammatory oedema was evaluated 1 hour after the Tramadol, corresponding to 90 minutes after the Firocoxib. […] The control animals were treated per os with the carrier, and i.p. with the same volume of saline.
The intensity of the oedema was measured on day 3 after intraplantar administration of CFA, 90 minutes after Firocoxib, corresponding to 1 hour after i.p. administration of Tramadol. We chose to evaluate the oedema 3 days after it was induced, because it is largest at this time. The paw swelling (oedema) was evaluated by measuring the volume of both hind paws using a specific instrument, the plethysmometer (7150 plethysmometer, Basile, Comerio, Italy). The results are expressed as the algebraic difference between the volume in ml of the inflamed paw (injected with CFA) and the normal uninflamed paw: the greater the difference, the larger the oedema present.
The values are the mean±SD of 8/10 rats.
The significance of the anti-inflammatory activity was evaluated with the Analysis of Variance (ANOVA) test, followed by the Bonferroni multiple comparison test. ANOVA test is the most suitable statistical test when more than 2 treatment groups are present. It is a restrictive test because it takes account of the variability of all the trial groups.

COX-1 = molecular target: T1, COX-1 (Canis lupus familiaris, UniProt Q8HZR1); conditions: dog, low therapeutic doses; cited from earlier work
T1 sequence (Q8HZR1 28-603): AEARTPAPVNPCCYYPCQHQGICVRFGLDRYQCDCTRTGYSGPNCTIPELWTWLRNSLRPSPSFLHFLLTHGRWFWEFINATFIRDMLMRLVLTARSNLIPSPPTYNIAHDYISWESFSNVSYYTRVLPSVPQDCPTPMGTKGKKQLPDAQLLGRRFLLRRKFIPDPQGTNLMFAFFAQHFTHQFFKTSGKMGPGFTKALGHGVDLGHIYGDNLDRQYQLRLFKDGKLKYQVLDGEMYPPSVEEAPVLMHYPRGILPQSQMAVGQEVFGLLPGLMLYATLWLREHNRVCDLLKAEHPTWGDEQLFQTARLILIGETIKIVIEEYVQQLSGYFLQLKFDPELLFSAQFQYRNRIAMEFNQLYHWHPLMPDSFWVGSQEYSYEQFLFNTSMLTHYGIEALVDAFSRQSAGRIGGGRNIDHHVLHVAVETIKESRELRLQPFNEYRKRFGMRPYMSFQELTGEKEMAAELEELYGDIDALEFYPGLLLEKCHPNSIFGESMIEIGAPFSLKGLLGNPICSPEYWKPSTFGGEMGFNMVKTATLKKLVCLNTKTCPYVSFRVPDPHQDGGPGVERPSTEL

[2] = cited from earlier work

With `CC1(C)OC(=O)C(OCC2CC2)=C1c1ccc(S(C)(=O)=O)cc1` [Firocoxib] the “anti-inflammatory effect (in words)” value ([1]; Firocoxib 2.5 mg/kg alone) was “completely lost its anti-inflammatory effect”, the “ml (inflamed paw/normal paw), intensity of oedema” value (from here on “ml (inflamed paw/normal paw)”) ([1]; Firocoxib 2.5 mg/kg p.o. alone, 90 min after Firocoxib) was 0.83 ± 0.05 mL and the “ml (inflamed paw/normal paw)” value ([1]; Firocoxib 5 mg/Kg p.o. alone, 90 min after Firocoxib, p < 0.01 vs saline) was 0.42 ± 0.08 mL. The inhibition at 5 mg/kg ([1]; Rattus norvegicus, Firocoxib 5.0 mg/kg alone) was about 50% and the “inhibition of COX-1 (in words)” value (COX-1) was “do not significantly inhibit COX-1”.
For `COc1cccc(C2(O)CCCCC2CN(C)C)c1` (centres unmarked) [Tramadol], the “anti-inflammatory effect (in words)” value ([1]; Tramadol 4 mg/kg alone) is given as “no anti-inflammatory effect”, the “ml (inflamed paw/normal paw)” value ([1]; Tramadol 4 mg/kg i.p. alone, 60 min after Tramadol) is given as 0.80 ± 0.06 mL and the “bond with plasma proteins” value ([2]; in vivo) is given as “low”. The elimination half-life ([2]; in vivo) was 1.5 to 7 h, the “time to peak plasma concentration” value ([2]; in vivo) was at most 2 h and the “absorption after oral administration” value ([2]; oral, regardless of the formulation used) was “very good absorption”.
